Like-named read-outs stand apart in the source and are kept apart here.
Columns and labels:
[1] = biological target: T1, human erythrocyte 20S proteasomes, trypsin-like activity (Homo sapiens, UniProt Q99436); experiment: 20S Proteasome Assay Kit, Boc-LRR-AMC substrate; assay type: biochemical; conditions: 37° C., 100 μM Boc-LRR-AMC
T1 construct: which contains human erythrocyte 20S proteasomes; purchased BIOMOL International AK-740; host or cells: human erythrocytes
Method: The eukaryotic 20S proteasome contains three catalytic subunits (β1, β2, and (β5) conferring caspase-like, trypsin-like and chymotrypsin-like proteolytic activities, respectively (Borissenko and Groll. 2007. Chem. Rev. 107:687-717, which is incorporated herein by reference in its entirety). Syringolin A was tested as a proteasome inhibitor using the 20S Proteasome Assay Kit for Drug Discovery AK-740 (BIOMOL® International, Plymouth Meeting, PA, USA), which contains human erythrocyte 20S proteasomes, in a 96-well microtiter plate. The fluorogenic substrates Suc-LLVY-AMC, Boc-LRR-AMC, and Z-LLE-AMC (BIOMOL® International) were used to monitor chymotrypsin-like, trypsin-like, and caspase-like activities, respectively. […] The release of free AMC (7-amino-4-methylcoumarin) at 37° C. was monitored with an MWGt Sirius HT fluorescence microplate reader (BIO-TEK® Instruments) equipped with a 360 nm excitation and a 460 nm emission filter. Proteolytic activities were measured as the increase in relative fluorescence units (RFU) over time (FIG. 7A-C). […] The initial velocities (vi) were determined from the time derivative of these curves and plotted versus the corresponding inhibitor concentration ([I]). […] The rate of covalent inhibition (kassociation), which equals kobs/[I] was calculated over the range of inhibitor concentrations given in parentheses in FIG. 7D. […]

[2] = biological target: T2, proteasome activity in SKOV3 ovarian cancer cells (Homo sapiens, UniProt P28074); experiment: Proteasome-Glo cell-based luminescent assay
T2 construct: in vivo proteasome activity in SK-N-SH neuroblastoma cells and SKOV3 human ovarian cancer cells; endogenous in cells; host or cells: SKOV3
T2 sequence (P28074 60-263): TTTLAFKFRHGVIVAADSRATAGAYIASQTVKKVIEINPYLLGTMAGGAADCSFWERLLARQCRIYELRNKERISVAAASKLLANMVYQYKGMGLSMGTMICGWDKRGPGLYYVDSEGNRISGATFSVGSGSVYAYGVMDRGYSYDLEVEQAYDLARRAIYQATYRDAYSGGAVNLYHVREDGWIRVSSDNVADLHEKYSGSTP
Method: Syringolin A was tested as a proteasome inhibitor in vivo in cultured mammalian cancer cells. Inhibition of proteasome activity in human SK-N-SH neuroblastoma cells was measured using the Proteasome-Glo™ cell-based luminescent assay (Promega) in solid white 96-well microtiter cell culture plates. Ten μl of syringolin A (at various concentrations) was added to each well containing SK-N-SH cells (plated at a concentration of 1.0×10^5 cells/ml in 90 μl well volumes 24 hours prior) and a negative control and media only control were included. Cells were incubated with 1-100 μM syringolin A for 2 hours or 24 hours, and then equilibrated to room temperature for 15 minutes before 100 μl of Proteasome-Glo reagent (containing bioluminescent substrate Suc-LLVY-aminoluciferin) was added to the cells. Luminescence (indicated as relative luminescence units [RLU]) was read after 15-30 minutes on a Dynex MLX Luminometer.
The cell culture-based proteasome inhibition assay was performed as previously described (Groll et al. 2008. Nature 452:755-758, which is incorporated herein by reference in its entirety). Briefly, wells of white-walled 96-well microtiter cell culture plates were seeded at a density of 1×10^4 cells/well (SK-N-SH) or 5×10^3 cells/well (SKOV3) in 90 μl. After 24 hours, 10 μl GlbA or SylA were added at increasing concentrations (0-100 μM) and incubated for 2 hours. […] Cell Death Differ 9:1017-1025; Meng, et al. 1999. PNAS 96:10403-10408, each of which is incorporated herein by reference in its entirety) were used as positive and negative controls, respectively. Microtiter plates were then equilibrated to room temperature for 15 min before adding 100 μl of proteasome Glo™ reagent (containing bioluminescent substrate Suc-LLVY-aminoluciferin) per well. Luminescence was measured on a Dynex MLX luminometer, according to the manufacturer's instructions (Promega).

SK-N-SH cells = experiment: microscopy of treated SK-N-SH cells for membrane blebbing; assay type: cell-based, human
[3] = system: β-actin, procaspase-3 and protein kinase Akt/PKB; experiment: Western blot of β-actin, procaspase-3 and Akt/PKB in syringolin A-treated cells; assay type: cell-based, human; conditions: 20 μM, 48 hours

Row | Compound | inhibition of trypsin-like activity [1] | IC50 ([2]; SKOV3, 2 hours, read-out: IC50 of proteasomal activity) [nM] | potency of GlbA relative to SylA ([2]; SKOV3, ratio of IC50) | membrane blebbing / apoptotic effects by microscopy (SK-N-SH cells) | IC50 [2] [nM] | proteasome activity in cells ([2]; SKOV3, 2 hours incubation, listed as SylA) | levels of β-actin, procaspase-3 and protein kinase Akt/PKB [3]
1 | CCCCCCC/C=C/C=C/C(=O)N[C@H](C(=O)N[C@H]1C[C@@H](O)CCNC(=O)/C=C/[C@H](C)NC1=O)[C@@H](C)O [glidobactin A] | less sensitive | 250 | approximately 16 fold | presence of membrane blebbing | – | – | –
2 | CC(C)[C@H](NC(=O)N[C@H](C(=O)N[C@H]1/C=C/CCNC(=O)/C=C/[C@H](C(C)C)NC1=O)C(C)C)C(=O)O [syringolin A] | inhibited | – | – | – | 4030 | dose-dependent manner | decreased
